From the NIST ThermoML archive (doi:10.1016/j.jct.2010.11.014)
Numbers after ± are expanded uncertainties.

Tests used:
[1] = molar heat capacity at constant pressure; xn = mol fraction of the nth substance listed; details: 101.3 kPa, Liquid, Adiabatic Solution Calorimetry
[2] = excess molar enthalpy (molar enthalpy of mixing); xn = mol fraction of the nth substance listed; details: 298.15 K, 101.3 kPa, Liquid, Adiabatic Solution Calorimetry

CCn1cc[n+](C)c1.COP(=O)([O-])OC [1-ethyl-3-methylimidazolium dimethylphosphate] + CCO
molar heat capacity at constant pressure [J/K/mol], [1]
Details | x1 = 0.2 | x1 = 0.4 | x1 = 0.6 | x1 = 0.8 | x1 = 1
298.15 K | 153.21 ± 38 | 220.84 ± 55 | 272.51 ± 72 | 324.35 ± 90 | 329.37 ± 110
303.15 K | 171.31 ± 38 | 235.29 ± 55 | 289.67 ± 72 | 348.58 ± 90 | 346.23 ± 110
313.15 K | 205.63 ± 38 | 282.28 ± 55 | 340.78 ± 72 | 404 ± 90 | 381.64 ± 110
323.15 K | 258.83 ± 38 | 335.32 ± 55 | 398.34 ± 72 | 448.05 ± 90 | 411.74 ± 110

[2]
Details | excess molar enthalpy [kcal/mol]
x1 = 0.15 | -0.428 ± 0.0206
x1 = 0.31 | -0.656 ± 0.0206
x1 = 0.47 | -0.57 ± 0.0206
x1 = 0.59 | -0.522 ± 0.0206
x1 = 0.8 | -0.286 ± 0.0203

CCn1cc[n+](C)c1.COP(=O)([O-])OC [1-ethyl-3-methylimidazolium dimethylphosphate] + O
molar heat capacity at constant pressure [J/K/mol], [1]
Details | x1 = 0.18 | x1 = 0.4 | x1 = 0.6 | x1 = 0.8 | x1 = 1
298.15 K | 119.02 ± 17 | 167.14 ± 31 | 224.66 ± 43 | 279.14 ± 56 | 329.37 ± 69
303.15 K | 125.02 ± 17 | 176.74 ± 31 | 242.41 ± 43 | 288.72 ± 56 | 346.23 ± 69
313.15 K | 134.91 ± 17 | 203.5 ± 31 | 276.49 ± 43 | 323.78 ± 56 | 381.64 ± 69
323.15 K | 148.41 ± 17 | 228.82 ± 31 | 304.05 ± 43 | 352.68 ± 56 | 411.74 ± 69

[2]
Details | excess molar enthalpy [kcal/mol]
x1 = 0.18 | -1.26 ± 0.0287
x1 = 0.31 | -1.51 ± 0.0287
x1 = 0.45 | -1.44 ± 0.0287
x1 = 0.64 | -1.15 ± 0.0287
x1 = 0.82 | -0.604 ± 0.0287

CCn1cc[n+](C)c1.COP(=O)([O-])OC [1-ethyl-3-methylimidazolium dimethylphosphate] + CO
molar heat capacity at constant pressure [J/K/mol], [1]
Details | x1 = 0.2 | x1 = 0.41 | x1 = 0.59 | x1 = 0.77 | x1 = 1
298.15 K | 147.03 ± 28 | 213.84 ± 44 | 269.26 ± 59 | 297.59 ± 73 | 329.37 ± 91
303.15 K | 163.64 ± 28 | 229.84 ± 44 | 289.07 ± 59 | 306.37 ± 73 | 346.23 ± 91
313.15 K | 215.28 ± 28 | 271.99 ± 44 | 337.82 ± 59 | 334.16 ± 73 | 381.64 ± 91
323.15 K | 252.08 ± 28 | 312.33 ± 44 | 370.93 ± 59 | 371.12 ± 73 | 411.74 ± 91

[2]
Details | excess molar enthalpy [kcal/mol]
x1 = 0.1 | -0.376 ± 0.043
x1 = 0.3 | -0.803 ± 0.043
x1 = 0.5 | -0.801 ± 0.043
x1 = 0.65 | -0.62 ± 0.043
x1 = 0.79 | -0.435 ± 0.043
